1 molecule from PMC12713093, “Hepatitis E Virus ORF1 Polyprotein Harbors a Pocket‐Like Cavity That Is Vital for Virus Replication and Represents a Novel Antiviral Target” (Advanced Science, 2025) can be followed below.

Structures are written as SMILES.

The target in the experiment is T1, X-RdRp protein (HEV ORF1 X to RdRp domains, forming the 'pocket-like' cavity, PC) (Hepatitis E virus US2, UniProt Q9YLR1).
T1 construct: X-RdRp fragment of ORF1 polyprotein (X 850-998, Hel 1002-1279, RdRp 1298-1765)
T1 sequence (Q9YLR1 793-1708): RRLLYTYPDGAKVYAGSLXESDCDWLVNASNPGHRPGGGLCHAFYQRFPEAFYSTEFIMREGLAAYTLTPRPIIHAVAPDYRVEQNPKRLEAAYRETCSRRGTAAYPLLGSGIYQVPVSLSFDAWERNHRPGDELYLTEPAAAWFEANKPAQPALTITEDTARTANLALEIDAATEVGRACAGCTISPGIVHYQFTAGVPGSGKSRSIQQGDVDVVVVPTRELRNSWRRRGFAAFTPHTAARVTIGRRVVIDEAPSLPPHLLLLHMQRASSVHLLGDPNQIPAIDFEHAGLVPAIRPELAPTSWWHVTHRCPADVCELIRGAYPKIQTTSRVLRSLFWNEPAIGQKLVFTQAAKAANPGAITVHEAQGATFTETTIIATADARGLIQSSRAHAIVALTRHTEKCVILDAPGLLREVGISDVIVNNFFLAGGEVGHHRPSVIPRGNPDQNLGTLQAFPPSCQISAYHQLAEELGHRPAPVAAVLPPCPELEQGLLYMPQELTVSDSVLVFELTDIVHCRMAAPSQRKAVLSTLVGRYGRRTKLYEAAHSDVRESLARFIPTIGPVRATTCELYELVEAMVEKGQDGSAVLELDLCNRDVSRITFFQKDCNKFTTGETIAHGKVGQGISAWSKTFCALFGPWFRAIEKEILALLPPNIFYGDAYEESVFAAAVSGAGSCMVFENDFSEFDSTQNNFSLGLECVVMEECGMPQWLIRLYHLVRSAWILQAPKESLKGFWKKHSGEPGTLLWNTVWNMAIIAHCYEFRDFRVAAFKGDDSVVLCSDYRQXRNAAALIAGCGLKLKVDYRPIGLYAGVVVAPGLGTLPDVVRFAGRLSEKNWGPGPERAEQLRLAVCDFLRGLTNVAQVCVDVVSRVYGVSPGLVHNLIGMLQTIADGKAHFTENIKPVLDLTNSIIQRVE
In words: SPR, Biacore 8K, CM5 chip, protein immobilised by amine coupling, […] Langmuir fit. The note with it: protein refolded from inclusion bodies; site (X/RdRp pocket-like cavity) assigned by docking. The format is binding.

`C[C@H]1CC[C@@]2(OC1)O[C@H]1C[C@H]3[C@@H]4CC=C5C[C@@H](O[C@@H]6O[C@@H](C)[C@H](O)[C@@H](O)[C@H]6O)C[C@@H](O[C@@H]6O[C@H](C)[C@H](O)[C@H](O)[C@H]6O)[C@]5(C)[C@H]4CC[C@]3(C)[C@H]1[C@@H]2C` [liriopesides B] returned a dissociation constant (Kd) of 132 µM.

One may read the Kd as the equilibrium constant for the complex coming apart. Low readings indicate higher affinity, high ones lower affinity.
